We go through four compounds from ChEMBL document CHEMBL1201862, “PubChem BioAssay data set” (2004).

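Compound exposure: 48 hours, 5 concentrations, 96-well plates. Here, GI50 denotes the concentration required for 50% inhibition of growth.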 Calls of active or inactive are those of the source. No stated cut-off is given here; in the data, active = GI50 up to about 1.1 µM and inactive = higher.

Some test systems named below: BT-549; CAKI-1; CCRF-CEM; EKVX; HCC 2998; HCT-116; IGROV-1; M14; Malme-3M; NCI-H522; OVCAR-3; PC-3; SF-295; SF-539; SK-MEL-5; SK-OV-3; SNB-19; SW-620; UACC-257; UO-31.
Holding throughout (test): inhibition of tumour cell growth, NCI panel, 48 h

For `N#Cc1nc(CCCN2C(=O)c3ccccc3C2=O)oc1N`, the GI50 with BT-549, in the assay with CAKI-1, in the assay on CCRF-CEM, in the assay on EKVX, with HCC 2998 and with HCT-116 was > 100 µM (inactive) each time. Further, the GI50 with IGROV-1, in the assay on M14, in the assay on Malme-3M, with NCI-H522, in the assay with OVCAR-3 and in the assay on PC-3 was > 100 µM (inactive) each time. Moreover, the GI50 with SF-295, in the assay on SF-539, in the assay with SK-MEL-5, in the assay with SK-OV-3, in the assay with SNB-19 and with SW-620 was > 100 µM (inactive) in each case. Besides, the GI50 in the assay on UACC-257 and with UO-31 was > 100 µM (inactive) in each case.
Take `Cc1ccc(C2=Nc3cccc4cccc(c34)N2)cc1`: the GI50 in the assay on BT-549, with CAKI-1, in the assay on CCRF-CEM, in the assay on EKVX, in the assay on HCC 2998 and with HCT-116 was > 100 µM (inactive) each time. Besides, the GI50 with IGROV-1, with M14, in the assay on Malme-3M, with NCI-H522, in the assay on OVCAR-3 and with PC-3 was > 100 µM (inactive) each time. In addition, the GI50 in the assay on SF-295, in the assay on SF-539, in the assay with SK-MEL-5, with SK-OV-3, in the assay on SNB-19 and in the assay with SW-620 was > 100 µM (inactive) in each case. The GI50 with UACC-257 and in the assay on UO-31 was > 100 µM (inactive) in each case.
Take `CCCC/C=C1\CCC(CN2CCOCC2)C1=O` (stereo not given): the GI50 is 3.56 µM (inactive) in the assay on BT-549; 1.92 µM (inactive) with CAKI-1; 0.724 µM (active) with CCRF-CEM; 11.2 µM (inactive) in the assay on EKVX; 9.08 µM (inactive) in the assay with HCC 2998; 2.04 µM (inactive) with HCT-116. For the same compound, the GI50 in the assay with IGROV-1 is 14.3 µM (inactive); in the assay on M14, 3.32 µM (inactive); in the assay with Malme-3M, 2.19 µM (inactive); in the assay with NCI-H522, 0.809 µM (active); with OVCAR-3 it was 5.32 µM (inactive); with PC-3 it was 13.2 µM (inactive). Besides, the GI50 was 16.3 µM (inactive) in the assay on SF-295; 7.73 µM (inactive) in the assay on SF-539; 12 µM (inactive) in the assay on SK-MEL-5; 17.1 µM (inactive) in the assay on SK-OV-3; 15.8 µM (inactive) in the assay on SNB-19; 2.1 µM (inactive) in the assay on SW-620. The figures for the GI50 in the assay on UACC-257 and with UO-31 were 5.28 µM (inactive) and 4.22 µM (inactive), respectively.
On to `Cc1ccc(C(=O)/C(C#N)=C/Nc2c(C)n(C)n(-c3ccccc3)c2=O)cc1`, for which the GI50 in the assay with BT-549, with CAKI-1, in the assay with CCRF-CEM, in the assay on EKVX, in the assay with HCC 2998 and in the assay on HCT-116 was > 100 µM (inactive) each time. In addition, the GI50 in the assay with IGROV-1, in the assay on M14, with Malme-3M, with NCI-H522, in the assay with OVCAR-3 and in the assay on PC-3 was > 100 µM (inactive) each time. The GI50 in the assay on SF-295, in the assay on SF-539, with SK-MEL-5, in the assay with SK-OV-3, in the assay with SNB-19 and in the assay with SW-620 was > 100 µM (inactive) each time. The GI50 in the assay with UACC-257 and in the assay on UO-31 was > 100 µM (inactive) in each case.
